Measured values: US20230257347A1 (priority 2020, published 2023)
Counter-ions that a name gives are not always drawn. Like-named read-outs stand apart in the source and are kept apart here.

Tests used:
[1] = molecular target: Cannabinoid Receptor 1 (CNR1) (Homo sapiens, UniProt P21554); assay: cAMP assay, CNR1; type: cell-based
[2] = molecular target: T1, Dopamine transporter (DAT) (Homo sapiens, UniProt Q01959); assay: Monoamine transporter uptake assay (fluorescent substrate), DAT; type: cell-based
T1 construct: expressed in transfected cells

[3] = molecular target: T2, Muscarinic acetylcholine Receptor M2 (CHRM2) (Homo sapiens, UniProt P08172); assay: cAMP assay, CHRM2; type: cell-based
T2 sequence (P08172 1-466): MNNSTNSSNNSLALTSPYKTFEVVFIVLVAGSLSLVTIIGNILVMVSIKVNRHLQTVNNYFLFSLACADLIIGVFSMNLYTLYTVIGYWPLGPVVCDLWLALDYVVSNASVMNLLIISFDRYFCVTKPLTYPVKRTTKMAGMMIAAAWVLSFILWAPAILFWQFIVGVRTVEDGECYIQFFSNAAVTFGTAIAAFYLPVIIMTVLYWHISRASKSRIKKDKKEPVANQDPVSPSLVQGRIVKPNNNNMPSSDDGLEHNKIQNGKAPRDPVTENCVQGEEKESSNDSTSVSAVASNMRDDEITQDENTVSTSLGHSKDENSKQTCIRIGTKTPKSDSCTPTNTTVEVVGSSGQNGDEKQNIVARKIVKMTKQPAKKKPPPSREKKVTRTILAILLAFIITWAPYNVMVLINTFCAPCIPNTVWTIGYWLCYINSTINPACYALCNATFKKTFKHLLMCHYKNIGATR

[4] = molecular target: Adrenergic Receptor β1 (ADRB1) (Homo sapiens, UniProt P08588); assay: cAMP assay, ADRB1; type: cell-based
[5] = molecular target: Opioid Receptor Delta 1 (OPRD1) (Homo sapiens, UniProt P41143); assay: cAMP assay, OPRD1; type: cell-based
[6] = molecular target: Muscarinic acetylcholine Receptor M3 (CHRM3) (Homo sapiens, UniProt P20309); assay: cell-based
[7] = molecular target: Dopamine Receptor D1 (DRD1) (Homo sapiens, UniProt P21728); assay: cAMP assay, DRD1; type: cell-based
[8] = molecular target: T3, Monoamine oxidase type A (MAOA) (Homo sapiens, UniProt P21397); assay: Enzymatic assay, MAOA (kynuramine substrate); type: biochemical
T3 construct: purchased Sigma
T3 sequence (P21397 1-527): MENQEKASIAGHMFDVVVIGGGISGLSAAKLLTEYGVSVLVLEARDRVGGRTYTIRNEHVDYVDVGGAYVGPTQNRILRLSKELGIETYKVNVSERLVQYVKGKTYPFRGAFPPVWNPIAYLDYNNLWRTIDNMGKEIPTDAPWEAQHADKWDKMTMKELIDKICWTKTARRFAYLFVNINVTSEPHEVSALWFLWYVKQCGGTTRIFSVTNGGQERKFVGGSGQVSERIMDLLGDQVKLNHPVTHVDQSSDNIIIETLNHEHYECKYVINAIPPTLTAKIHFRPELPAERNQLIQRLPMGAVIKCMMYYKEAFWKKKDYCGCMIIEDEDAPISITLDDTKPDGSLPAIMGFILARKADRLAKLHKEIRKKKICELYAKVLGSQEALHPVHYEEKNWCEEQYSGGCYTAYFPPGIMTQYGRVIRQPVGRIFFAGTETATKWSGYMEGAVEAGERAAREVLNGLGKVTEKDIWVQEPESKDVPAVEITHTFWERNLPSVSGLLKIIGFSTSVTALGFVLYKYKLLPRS

[9] = molecular target: T4, Adrenergic Receptor α1A (ADRA1A) (Homo sapiens, UniProt P35348); assay: Calcium flux assay, ADRA1A; type: cell-based
T4 sequence (P35348 1-466): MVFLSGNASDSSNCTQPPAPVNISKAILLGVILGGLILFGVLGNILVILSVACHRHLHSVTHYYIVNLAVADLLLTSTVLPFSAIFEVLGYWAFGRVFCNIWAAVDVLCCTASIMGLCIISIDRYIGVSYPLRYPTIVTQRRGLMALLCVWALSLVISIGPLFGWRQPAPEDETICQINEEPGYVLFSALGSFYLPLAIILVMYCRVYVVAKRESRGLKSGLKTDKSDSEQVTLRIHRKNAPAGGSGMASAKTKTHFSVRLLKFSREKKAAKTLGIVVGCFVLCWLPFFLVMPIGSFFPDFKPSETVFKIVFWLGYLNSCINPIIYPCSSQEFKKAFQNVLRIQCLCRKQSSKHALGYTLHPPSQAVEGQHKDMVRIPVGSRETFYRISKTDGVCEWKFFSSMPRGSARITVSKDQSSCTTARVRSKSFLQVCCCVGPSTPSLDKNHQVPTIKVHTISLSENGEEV

[10] = molecular target: T5, Serotonin transporter (SERT) (Homo sapiens, UniProt P31645); assay: cell-based
T5 construct: expressed in transfected cells

[11] = molecular target: T6, Insulin Receptor (tyrosine kinase) (INSR) (Homo sapiens, UniProt P06213); assay: KINOMEscan binding assay, INSR
T6 construct: made in house; host or cells: E. coli BL21-derived host (T7 phage) or HEK-293

[12] = molecular target: T7, Voltage-gated L-type calcium channel (CAV1.2) (Homo sapiens, UniProt Q13936); assay: Ion channel assay, CAV1.2; type: cell-based
T7 construct: expressed in transfected cells

[13] = molecular target: Adrenergic Receptor β2 (ADRB2) (Homo sapiens, UniProt P07550); assay: cAMP assay, ADRB2; type: cell-based
[14] = molecular target: Dopamine Receptor D2 (DRD2S) (Homo sapiens, UniProt P14416); assay: cAMP assay, DRD2S; type: cell-based
[15] = read-out: MAOA IC50, Table 10, Source: Original data

T1 sequence (Q01959 whole entry): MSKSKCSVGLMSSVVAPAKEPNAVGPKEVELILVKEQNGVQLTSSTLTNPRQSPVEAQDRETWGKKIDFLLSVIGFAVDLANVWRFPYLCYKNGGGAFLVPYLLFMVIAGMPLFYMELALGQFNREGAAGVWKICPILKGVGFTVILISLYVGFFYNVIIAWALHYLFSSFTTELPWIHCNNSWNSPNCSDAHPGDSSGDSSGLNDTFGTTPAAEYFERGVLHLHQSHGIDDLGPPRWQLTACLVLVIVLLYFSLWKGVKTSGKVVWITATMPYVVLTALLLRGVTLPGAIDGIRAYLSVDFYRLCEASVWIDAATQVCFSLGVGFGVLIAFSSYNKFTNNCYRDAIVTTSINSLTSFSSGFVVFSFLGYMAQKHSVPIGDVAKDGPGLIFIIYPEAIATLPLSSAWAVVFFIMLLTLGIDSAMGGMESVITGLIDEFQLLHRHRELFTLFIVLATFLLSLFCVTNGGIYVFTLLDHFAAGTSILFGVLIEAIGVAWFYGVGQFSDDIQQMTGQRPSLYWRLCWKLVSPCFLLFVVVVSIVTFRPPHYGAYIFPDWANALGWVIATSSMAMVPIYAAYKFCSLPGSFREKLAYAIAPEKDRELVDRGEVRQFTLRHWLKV
Sequence of Adrenergic Receptor β1 (ADRB1) (P08588 whole entry): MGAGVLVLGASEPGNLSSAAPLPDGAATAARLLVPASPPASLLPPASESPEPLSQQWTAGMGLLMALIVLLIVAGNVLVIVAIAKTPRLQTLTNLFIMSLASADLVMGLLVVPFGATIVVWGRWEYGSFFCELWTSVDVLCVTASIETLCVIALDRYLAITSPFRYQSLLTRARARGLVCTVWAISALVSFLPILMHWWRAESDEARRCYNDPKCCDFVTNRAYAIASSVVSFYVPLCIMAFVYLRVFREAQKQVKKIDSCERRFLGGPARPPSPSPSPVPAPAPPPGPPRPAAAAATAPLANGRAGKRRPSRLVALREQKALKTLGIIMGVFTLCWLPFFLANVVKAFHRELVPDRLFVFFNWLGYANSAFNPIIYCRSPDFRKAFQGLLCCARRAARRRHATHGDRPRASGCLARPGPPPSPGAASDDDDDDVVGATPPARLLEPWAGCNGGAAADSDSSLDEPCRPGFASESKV
Sequence of Dopamine Receptor D2 (DRD2S) (P14416 1-414 isoform P14416-2): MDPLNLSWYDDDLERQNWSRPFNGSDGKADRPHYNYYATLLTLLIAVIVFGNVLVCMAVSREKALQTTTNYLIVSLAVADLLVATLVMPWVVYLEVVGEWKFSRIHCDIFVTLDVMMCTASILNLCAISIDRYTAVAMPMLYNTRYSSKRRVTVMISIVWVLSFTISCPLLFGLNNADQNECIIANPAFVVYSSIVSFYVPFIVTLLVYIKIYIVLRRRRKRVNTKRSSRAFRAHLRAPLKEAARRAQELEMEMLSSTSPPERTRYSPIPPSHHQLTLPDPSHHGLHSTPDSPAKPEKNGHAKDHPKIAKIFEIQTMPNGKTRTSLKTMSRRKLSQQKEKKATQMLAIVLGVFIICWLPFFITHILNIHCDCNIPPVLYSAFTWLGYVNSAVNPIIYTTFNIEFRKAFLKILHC
T5 sequence (P31645 whole entry): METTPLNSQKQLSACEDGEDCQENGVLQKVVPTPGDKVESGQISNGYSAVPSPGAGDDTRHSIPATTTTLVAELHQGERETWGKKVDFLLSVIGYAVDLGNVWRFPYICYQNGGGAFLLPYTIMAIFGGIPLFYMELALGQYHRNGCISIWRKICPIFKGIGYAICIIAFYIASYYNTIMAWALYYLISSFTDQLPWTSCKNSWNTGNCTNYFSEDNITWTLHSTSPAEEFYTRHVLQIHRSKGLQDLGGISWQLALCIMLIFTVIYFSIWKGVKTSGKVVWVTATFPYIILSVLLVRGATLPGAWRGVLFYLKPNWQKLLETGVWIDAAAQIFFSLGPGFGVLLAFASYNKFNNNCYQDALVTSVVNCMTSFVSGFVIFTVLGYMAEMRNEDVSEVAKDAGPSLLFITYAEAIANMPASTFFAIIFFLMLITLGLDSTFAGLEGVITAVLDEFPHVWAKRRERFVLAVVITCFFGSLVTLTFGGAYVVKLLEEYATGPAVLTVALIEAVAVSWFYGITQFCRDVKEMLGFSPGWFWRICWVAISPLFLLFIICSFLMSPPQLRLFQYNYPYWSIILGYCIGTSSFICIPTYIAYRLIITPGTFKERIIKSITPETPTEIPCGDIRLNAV
Sequence of Cannabinoid Receptor 1 (CNR1) (P21554 whole entry): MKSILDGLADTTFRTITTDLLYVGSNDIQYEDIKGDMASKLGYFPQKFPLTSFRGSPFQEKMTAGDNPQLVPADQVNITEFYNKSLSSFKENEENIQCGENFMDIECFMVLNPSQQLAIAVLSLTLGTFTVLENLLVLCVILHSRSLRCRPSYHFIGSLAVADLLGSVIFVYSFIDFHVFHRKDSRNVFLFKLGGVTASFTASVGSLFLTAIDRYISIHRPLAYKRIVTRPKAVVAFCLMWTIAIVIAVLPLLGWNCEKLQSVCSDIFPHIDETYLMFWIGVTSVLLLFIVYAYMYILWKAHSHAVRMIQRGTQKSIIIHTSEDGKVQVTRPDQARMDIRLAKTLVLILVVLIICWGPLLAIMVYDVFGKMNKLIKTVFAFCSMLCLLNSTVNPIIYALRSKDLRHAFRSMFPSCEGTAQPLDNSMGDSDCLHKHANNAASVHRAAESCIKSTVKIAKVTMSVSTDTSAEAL
T6 sequence (P06213 28-1382): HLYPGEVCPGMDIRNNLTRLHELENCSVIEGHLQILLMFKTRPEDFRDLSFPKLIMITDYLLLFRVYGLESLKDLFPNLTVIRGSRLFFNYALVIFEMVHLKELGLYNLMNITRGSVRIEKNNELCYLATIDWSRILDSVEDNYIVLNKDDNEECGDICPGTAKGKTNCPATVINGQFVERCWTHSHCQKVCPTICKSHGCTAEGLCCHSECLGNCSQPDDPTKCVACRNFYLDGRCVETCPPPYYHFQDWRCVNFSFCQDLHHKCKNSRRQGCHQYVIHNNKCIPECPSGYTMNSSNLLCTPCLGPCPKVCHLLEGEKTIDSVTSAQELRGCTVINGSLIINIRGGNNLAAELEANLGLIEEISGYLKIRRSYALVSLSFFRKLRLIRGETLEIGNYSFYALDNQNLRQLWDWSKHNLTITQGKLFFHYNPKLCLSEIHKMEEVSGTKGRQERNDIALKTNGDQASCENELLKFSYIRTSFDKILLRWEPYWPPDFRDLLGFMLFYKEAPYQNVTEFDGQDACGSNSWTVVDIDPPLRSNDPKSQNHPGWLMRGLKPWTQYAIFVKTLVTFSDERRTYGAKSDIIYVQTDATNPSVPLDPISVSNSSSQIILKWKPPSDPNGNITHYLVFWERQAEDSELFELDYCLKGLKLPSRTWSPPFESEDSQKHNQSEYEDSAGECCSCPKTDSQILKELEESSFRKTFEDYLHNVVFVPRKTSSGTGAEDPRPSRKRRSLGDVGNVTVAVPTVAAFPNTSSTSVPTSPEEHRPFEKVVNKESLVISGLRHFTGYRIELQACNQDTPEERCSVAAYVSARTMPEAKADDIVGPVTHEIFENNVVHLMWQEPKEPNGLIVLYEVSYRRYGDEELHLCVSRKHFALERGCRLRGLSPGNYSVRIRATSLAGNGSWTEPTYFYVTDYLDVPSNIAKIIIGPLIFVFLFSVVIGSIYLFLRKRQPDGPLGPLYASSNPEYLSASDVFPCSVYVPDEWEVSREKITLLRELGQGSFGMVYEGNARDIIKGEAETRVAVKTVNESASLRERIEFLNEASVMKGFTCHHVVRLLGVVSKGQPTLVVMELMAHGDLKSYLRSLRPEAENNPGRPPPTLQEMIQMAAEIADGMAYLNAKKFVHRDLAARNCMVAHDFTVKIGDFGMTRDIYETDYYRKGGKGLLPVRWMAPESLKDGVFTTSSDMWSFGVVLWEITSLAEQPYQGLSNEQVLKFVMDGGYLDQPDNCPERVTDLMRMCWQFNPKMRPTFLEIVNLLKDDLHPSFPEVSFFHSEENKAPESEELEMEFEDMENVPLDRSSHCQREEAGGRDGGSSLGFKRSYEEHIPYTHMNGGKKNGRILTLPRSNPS
Sequence of Dopamine Receptor D1 (DRD1) (P21728 whole entry): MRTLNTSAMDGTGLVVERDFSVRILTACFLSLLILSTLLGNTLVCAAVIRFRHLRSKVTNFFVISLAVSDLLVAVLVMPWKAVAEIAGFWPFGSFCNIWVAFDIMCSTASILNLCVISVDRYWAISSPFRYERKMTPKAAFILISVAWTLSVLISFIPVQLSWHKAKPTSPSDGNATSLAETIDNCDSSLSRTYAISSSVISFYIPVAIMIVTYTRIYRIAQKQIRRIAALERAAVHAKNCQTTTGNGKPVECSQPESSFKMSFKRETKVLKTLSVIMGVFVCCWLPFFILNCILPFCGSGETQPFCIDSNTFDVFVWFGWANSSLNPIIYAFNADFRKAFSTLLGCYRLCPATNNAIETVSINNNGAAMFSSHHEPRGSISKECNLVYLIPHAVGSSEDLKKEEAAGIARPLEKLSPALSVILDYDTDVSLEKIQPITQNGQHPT
Sequence of Muscarinic acetylcholine Receptor M3 (CHRM3) (P20309 whole entry): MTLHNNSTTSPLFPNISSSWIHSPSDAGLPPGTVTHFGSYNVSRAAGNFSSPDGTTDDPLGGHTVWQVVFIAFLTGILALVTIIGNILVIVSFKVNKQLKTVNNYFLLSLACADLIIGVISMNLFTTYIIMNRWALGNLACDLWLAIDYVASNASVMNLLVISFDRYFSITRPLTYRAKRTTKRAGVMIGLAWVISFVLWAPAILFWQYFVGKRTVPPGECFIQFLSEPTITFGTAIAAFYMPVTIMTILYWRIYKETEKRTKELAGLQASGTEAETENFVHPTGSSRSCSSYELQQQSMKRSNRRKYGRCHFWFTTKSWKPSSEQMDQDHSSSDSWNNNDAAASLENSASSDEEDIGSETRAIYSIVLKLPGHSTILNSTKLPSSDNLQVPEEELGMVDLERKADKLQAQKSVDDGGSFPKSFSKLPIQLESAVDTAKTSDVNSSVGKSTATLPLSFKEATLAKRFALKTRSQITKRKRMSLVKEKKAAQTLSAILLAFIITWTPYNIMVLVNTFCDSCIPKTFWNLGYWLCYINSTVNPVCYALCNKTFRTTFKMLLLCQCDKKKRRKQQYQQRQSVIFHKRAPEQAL

## CNC(C)C(=O)c1c[nH]c2ccc(Br)cc12 (stereo not shown) [BK-5Br-NM-AMT, 1-(5-bromo-1H-indol-3-yl)-2-(methylamino) propan-1-one hydrochloride]
[1]
  EC50: > 10 µM
  IC50: > 10 µM
[2]
  IC50: 4.24 µM
[3]
  EC50: > 10 µM
  IC50: > 10 µM
[4]
  EC50: > 10 µM
  IC50: > 10 µM
[5]
  EC50: > 10 µM
  IC50: > 10 µM
[6]
  EC50: > 10 µM
  IC50: > 10 µM
[7]
  EC50: > 10 µM
  IC50: 9.7 µM
[8]
  IC50: > 10 µM
[8]; [15]
  IC50: > 10 µM
[9]
  EC50: 8.24 µM
  IC50: > 10 µM
[10]
  IC50: > 10 µM
[11]
  IC50: > 10 µM
[12]
  IC50: > 10 µM
[13]
  EC50: > 10 µM
  IC50: 5.44 µM
[14]
  EC50: > 10 µM
  IC50: 4.26 µM

## CNC(C)C(=O)c1c[nH]c2ccc(Cl)cc12 (stereo not shown) [BK-5Cl-NM-AMT, 1-(5-chloro-1H-indol-3-yl)-2-(methylamino) propan-1-one hydrochloride]
[1]
  EC50: > 10 µM
  IC50: > 10 µM
[2]
  IC50: 6.08 µM
[3]
  EC50: > 10 µM
  IC50: > 10 µM
[4]
  EC50: > 10 µM
  IC50: > 10 µM
[5]
  EC50: > 10 µM
  IC50: > 10 µM
[6]
  EC50: > 10 µM
  IC50: > 10 µM
[7]
  EC50: > 10 µM
  IC50: > 10 µM
[8]
  IC50: > 10 µM
[8]; [15]
  IC50: > 10 µM
[9]
  EC50: > 10 µM
  IC50: > 10 µM
[10]
  IC50: > 10 µM
[11]
  IC50: > 10 µM
[12]
  IC50: > 10 µM
[13]
  EC50: > 10 µM
  IC50: 8.68 µM
[14]
  EC50: > 10 µM
  IC50: 6.22 µM

## CNC(C)C(=O)c1c[nH]c2ccc(F)cc12 (stereo not shown) [BK-5F-NM-AMT, 1-(5-Fluoro-1H-indol-3-yl)-2-(methylamino) propan-1-one hydrochloride]
[1]
  EC50: > 10 µM
  IC50: > 10 µM
[2]
  IC50: > 10 µM
[3]
  EC50: > 10 µM
  IC50: > 10 µM
[4]
  EC50: > 10 µM
  IC50: > 10 µM
[5]
  EC50: > 10 µM
  IC50: > 10 µM
[6]
  EC50: > 10 µM
  IC50: > 10 µM
[7]
  EC50: > 10 µM
  IC50: > 10 µM
[8]
  IC50: > 10 µM
[8]; original data
  MAOA inhibition (MAOI or not, in words): is not an MAOI
[8]; [15]
  IC50: > 10 µM
[9]
  EC50: > 10 µM
  IC50: > 10 µM
[10]
  IC50: > 10 µM
[11]
  IC50: > 10 µM
[12]
  IC50: > 10 µM
[13]
  EC50: > 10 µM
  IC50: > 10 µM
[14]
  EC50: > 10 µM
  IC50: 5.2 µM
